Data from patent EP3300730A1, “THE MEDICAL USE OF 5,7-DIHYDROXY-3-(4-HYDROXYPHENYL)-4H-1-BENZOPIRAN-4-ONE IN THE THERAPY OF HUNTINGTON DISEASE AND PHARMACEUTICALLY ACCEPTABLE FORM OF THE DRUG” (Uniwersytet Gdanski, priority 2016, dated 2018).

How the values were obtained:
huntingtin aggregates = assay: Fluorescence microscopy of huntingtin aggregates in transfected cells; type: cell-based, human; conditions: HEK293 transfected with pEGFP-Q74; genistein 30, 60 and 100 µM; 48 h; vs DMSO control (Fig. 1)
Experimental: (§1) • Fig. 1. Number and average size of huntingtin aggregates in human embryonic kidney cells transfected with plasmid pEGFP-Q74 (bearing the 1st exon of the HTT gene with 74 CAG repeats), treated with genistein (30, 60 and 100 µM) or DMSO (control cells), in a volume equal to that of genistein, for 48 h. Error bars indicate standard deviation. Statistical analysis was performed with the t-Student test. The differences were considered significant at p<0.05. • Fig. 2. Relative level of mutated huntingtin in human embryonic kidney cells transfected with plasmid pEGFP-Q74 (bearing the 1st exon of the HTT gene with 74 CAG repeats), treated with genistein (30, 60 and 100 µM) or DMSO (control cells), in a volume equal to that of genistein, for 96 h. Actin was used as an internal control. • Fig. 3. […] Intensity of bands was estimated using the Quantity One software. • Fig. 5. Number (calculated per one cell) and volume of acidic organelles in human embryonic kidney cells transfected with plasmid pEGFP-Q74 (bearing the 1st exon of the HTT gene with 74 CAG repeats), treated with genistein (30, 60 and 100 µM) or DMSO (control cells), in a volume equal to that of genistein, for 96 h. […] The co-localization Pearson factor was calculated by using the ImageJ software. […]

mutated huntingtin [1] = assay: Western blotting of mutated huntingtin with lysosomal function inhibited by chloroquine; type: cell-based, human; conditions: in the presence of 10 µM chloroquine; genistein 30, 60 and 100 µM; 96 h; HEK293 transfected with pEGFP-Q74 (Fig. 7)
Experimental: as §1

LC3-II protein = assay: Immunodetection (Western blotting) of the autophagy marker LC3-II; type: cell-based, human; conditions: 96 h
Experimental: as §1

[2] = test system: aggregates of mutated huntingtin with lysosomes; assay: Co-localization of mutated huntingtin aggregates with lysosomes (fluorescence microscopy, Pearson coefficient); type: cell-based, human; conditions: 100 µM genistein; 96 h; HEK293 transfected with pEGFP-Q74; vs DMSO control (Fig. 6)
Experimental: as §1, with “2.” for “2. Relative level of mutated huntingtin in human embryonic kidney cells transfected with plasmid pEGFP-Q74 (bearing the 1st exon of the HTT gene with 74 CAG repeats), treated with genistein (30, 60 and 100 µM) or DMSO (control cells), in a volume equal to that of genistein, for 96 h. Actin was used as an internal control. • Fig. 3.”
In order to test whether mutant huntingtin is transported into lysosomes for degradation, co-localization of aggregates of mutated huntingtin with lysosomes was assessed using a fluorescent microscope (Fig. 6). […]

mutated huntingtin [3] = assay: Western blotting of the mutated huntingtin level; type: cell-based, human; conditions: HEK293 transfected with pEGFP-Q74; genistein 30, 60 and 100 µM; 96 h; actin internal control (Fig. 2)
Experimental: as §1

[4] = test system: human embryonic kidney cells (HEK293) transfected with plasmid pEGFP-Q74; assay: MTT viability test of cells transfected with pEGFP-Q74; type: cell-based; conditions: genistein 30, 60 and 100 µM, 48 h, MTT test (Fig. 3)
Experimental: as §1

acidic organelles = assay: LysoTracker Red staining of acidic organelles (lysosomes), ImageJ analysis; type: cell-based, human; conditions: 96 h, HEK293 transfected with pEGFP-Q74, LysoTracker Red (Fig. 5)
Description: • Fig. 1. […] Error bars indicate standard deviation. […] Error bars indicate standard deviation. […] Error bars indicate standard deviation.

O=c1c(-c2ccc(O)cc2)coc2cc(O)cc(O)c12 [genistein, 5,7-dihydroxy-3-(4-hydroxyphenyl)-4H-1-benzopiran-4-one]
number of mutant huntingtin aggregates in cells (huntingtin aggregates): decrease in both size and number
size of mutant huntingtin aggregates in cells (huntingtin aggregates): decrease in both size and number
level of mutated huntingtin (mutated huntingtin [1]): did not change significantly
LC3-II protein amount (LC3-II protein; HEK293 transfected with pEGFP-Q74, genistein 30, 60 and 100 µM, vs DMSO control (Fig. 4)): genistein-concentration-dependent increase
fold induction at 100 µM (LC3-II protein; Homo sapiens, highest genistein concentration (100 µM), HEK293 transfected with pEGFP-Q74 (Fig. 4), read-out: LC3-II protein level relative to control experiment): ~4
co-localization of aggregates of mutated huntingtin with lysosomes [2]: increased significantly
level of mutant huntingtin in cells (mutated huntingtin [3]): significantly reduces
viability of cells [4]: increase in viability
number of acid organelles (acidic organelles; 30 µM genistein): increase is visible
volume of acid organelles (acidic organelles; 30 µM genistein): increase in the volume of acid organelles was evident
number of acid organelles (acidic organelles; 100 µM genistein): difference relative to the control is significant
